Measurements taken from paper PMC8584011, “Immunomodulatory Lectin-like Peptides for Fish Erythrocytes-Targeting as Potential Antiviral Drug Delivery Platforms” (International Journal of Molecular Sciences, 2021).

Assays:
[1] = tested on: rainbow trout RBCs; test: In vivo binding of peptides to RBCs after i.v. injection, flow cytometry (iMFI); design: species or system rainbow trout (Oncorhynchus mykiss); conditions: i.v. injection of 100 µM peptide in 50 µL, peripheral blood at 3 hpi, mean ± SD n = 3, ranking of peptides
Method: Figure 4 Peptide binding to rainbow trout RBCs in vivo, by means of flow cytometry. (a) Integrated median fluorescence intensity (iMFI) (% positive cells × MFI) of RBCs from blood of rainbow trout injected intravenously with the three selected peptides, 3 hpi with 100 µM of each peptide, analyzed by flow cytometry. Data represent the mean ± standard deviation (SD), n = 3. Kruskal–Wallis test with Dunn’s multiple comparison test was performed (p < 0.05). C means control RBCs. (b) Representative images of RBCs from blood of rainbow trout injected intravenously with the three selected peptides, 3 hpi with 100 µM of each peptide. The images were taken with the IN Cell Analyzer 6000 Cell Imaging system at 40× magnification. Peptides are labeled with Rhd (red). […]
Juvenile rainbow trout (7–10 g) were anesthetized with tricaine methanesulfonate, (Sigma-Aldrich, Madrid, Spain) (40 mg/L) and injected intravenously (i.v) with 100 µM of 4341, 4342, 4343 Rhd-labeled peptides in 50 µL of RMPI 2% FBS using insulin syringes. […] Then, blood samples were evaluated by means of flow cytometry and fluorescent microscopy as described below (Figure 6).
RBCs treated in vitro with the Rhd-labeled peptides and blood samples from individuals of rainbow trout injected with the three Rhd-labeled peptides were analyzed by flow cytometry using a FACS Canto II flow cytometer (BD Biosciences, Madrid, Spain). […]

[2] = tested on: human RBCs; conditions: cited from earlier work
Source text: (§1) Among the identified peptides in the literature, we selected three peptides based on their reported affinity to bind nucleated RBCs or mammalian RBCs. […] This peptide will be named in this article as 4341. Another selected peptide is a small peptide with lectin-like behavior, called odorranalectin (hereafter referred ...

[3] = tested on: rabbit RBCs; conditions: cited from earlier work
Source text: as §1

[4] = tested on: rainbow trout RBCs; test: Confocal microscopy of peptide-RBC binding / presence inside the cell; assay type: cell-based, rainbow trout (Oncorhynchus mykiss); conditions: 90 min incubation with Rhd-labeled peptides, Hoechst and CellMask Green staining
Method: Figure 2 Volume 3D reconstruction of the visualization of the peptides binding to rainbow trout RBCs. Rhd-labeled peptides are represented in red, nuclei were stained with Hoescht and are represented in blue, and cell membrane was stained using CellMask Green and is represented in beige. The images were taken at 63× magnification. Confocal images were processed using the ZEN 3.2 (Blue edition). Volume rendering was performed with IMARIS v9.3. Upper images represent plan view and lower images represent perspective view.
Confocal microscopy was performed to evaluate peptide-RBCs binding in vitro. After 90 min of incubation with Rhd-labeled peptides, RBCs were washed, and nuclei were stained with Hoechst (1 μg/mL) (Sigma-Aldrich) and membrane was stained with CellMask Green (5 μg/mL) (Thermo Fischer Scientific). Images were taken with a Zeiss LSM900 with Airyscan 2 and analyzed with ZEN 3.2 (Blue edition) software (Zeiss, Oberkochen, Germany). Volume rendering was performed using IMARIS Software v9.3 (Bitplane, Zurich, Switzerland).

[5] = tested on: rainbow trout RBCs; test: Antiviral gene expression in RBCs by RT-qPCR; assay type: cell-based, rainbow trout (Oncorhynchus mykiss); conditions: 50 µM peptide, 6 h post-treatment at 14 °C, normalized to ef1α, relative to untreated RBCs
Method: Figure 3 Antiviral immunomodulation of the peptides in rainbow trout RBCs. Antiviral gene (ifit5, mx1-3, nkef, and vig1) expression quantified by RT-qPCR in RBCs at 6 h post-treatment (hpt) with 50 µM of each peptide. Gene expression was normalized against ef1α and relativized to control cells (RBCs untreated) (red line). Data represent the mean ± standard deviation (SD), n = 4. Mann–Whitney test was performed (* p < 0.05).
To evaluate the possible antiviral immunomodulatory effects of the peptides, ficoll-purified RBCs (10^6 cells/well) were incubated with 50 µM of 4341, 4342, 4343 Rhd-labeled peptides for 6 h at 14 °C. After that, RBCs were washed, and samples were stored in buffer for RNA extraction and RT-qPCR analysis (Figure 5).
The E.Z.N.A.® Total RNA Kit (Omega Bio-Tek Inc., Norcross, GA, USA) was used for RNA isolation according to the manufacturer’s instructions. Subsequent DNAse treatment was done using TURBO™ DNase (Ambion, Thermo Fisher Scientific, Waltham, MA USA) to eliminate possible residual genomic DNA. RNA was quantified with a NanoDrop Spectrophotometer (Nanodrop Technologies, Wilmington, DE, USA). Then, cDNA synthesis from RNA was performed using M-MLV reverse transcriptase (Invitrogen, Thermo Fisher Scientific) as previously described.
To evaluate the gene expression of RBCs treated with 50 µM of the three Rhd-labeled peptides, RT-qPCR was carried out using the QUANTSTUDIO 3 System (Applied Biosystems, Thermo Fisher Scientific Inc.). Gene expression was analyzed by the 2^–ΔΔCt method. The ef1α gene was used as endogenous control.

[6] = tested on: rainbow trout RBCs; test: In vitro binding of Rhd-labeled peptides to RBCs, flow cytometry (iMFI); assay type: cell-based, rainbow trout (Oncorhynchus mykiss); conditions: 100 µM Rhd-labeled peptide, 90 min at 14 °C, 10^5 cells/well, mean ± SD n = 3, ranking of peptides
Method: In order to evaluate the binding of the peptides for RBCs, we carried out a dose-response assay using a concentration range from 25 to 100 µM. The binding of the Rhodamine (Rhd)-labeled peptides was evaluated by means of flow cytometry and calculated as the integrated median fluorescence intensity (iMFI), which is computed by multiplying the relative frequency (% positive) of cells with the median fluorescence intensity (MFI) of that population. […] Besides, hemagglutination was not observed at the concentrations of peptides used (Supplementary Figure S1). Cell toxicity was not observed neither in vitro nor in vivo at the maximum concentration of peptides used (Supplementary Figure S2).
Figure 1 Peptide binding to rainbow trout RBCs in vitro, evaluated by means of flow cytometry. (a) Integrated median fluorescence intensity (iMFI) (% positive cells × MFI) of rainbow trout RBCs treated with different peptide concentrations, 90 min after incubation, analyzed by flow cytometry. Data represent the mean ± standard deviation (SD), n = 3. […]
Ficoll-purified RBCs (10^5 cells/well) were treated with 25, 50, and 100 µM of 4341, 4342, 4343 Rhd-labeled peptides, and incubated for 90 min at 14 °C. Then, RBCs were washed with 200 µL of RPMI 2% FBS and analyzed by flow cytometry, fluorescent microscopy, and confocal microscopy as described below (Figure 5). […]

[7] = cited from earlier work
Source text: In addition, our selected peptides were mainly found inside RBCs, instead of at the surface of the RBCs, as observed by confocal microscopy. […] In this contex ...

Rhd-YASPKCFRYPNGVLACT [compound 4342, odorranalectin, Rhd-labeled small peptide with lectin-like behavior, called odorranalectin]
Binding to RBCs in vivo (iMFI = % positive cells × MFI) [1]: highest iMFI
Binding to human RBCs [2]: bind
Binding to rabbit RBCs [3]: bind
Presence of peptide inside the cell [4]: higher
mx1-3 gene expression ([5]; n = 4): slight and not statistically significant upregulation
ifit5 gene expression ([5]; n = 4, Mann–Whitney p < 0.05): statistically significantly upregulated
nkef gene expression ([5]; n = 4, not statistically significant): upregulated
Binding to RBCs (iMFI = % positive cells × MFI) [6]: highest binding
Stability in circulation [7]: high stability in circulation
